Assay results taken from PubChem BioAssay (NCI).
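Exposure lasted 48 hours, with cells grown in 96-well plates and compounds tested at five concentrations. TGI: concentration producing complete growth inhibition.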

Assays:
Experiment in all cases: growth of human tumour cells (NCI), 48 h
[1] = test system: A498 renal
[2] = test system: A549 NSCLC
[3] = test system: M14 melanoma
[4] = test system: OVCAR-8 ovarian
[5] = test system: RXF 393 renal
[6] = test system: SK-MEL-5 melanoma
[7] = test system: SK-OV-3 ovarian
[8] = test system: U251 CNS
[9] = test system: MDA-MB-435
[10] = test system: MDA-MB-231 breast

| SMILES | TGI [1] [µM] | TGI [2] [µM] | TGI [3] [µM] | TGI [4] [µM] | TGI [5] [µM] | TGI [6] [µM] | TGI [7] [µM] | TGI [8] [µM] | TGI [9] [µM] | TGI [10] [µM] |
| --- | --- | --- | --- | --- | --- | --- | --- | --- | --- | --- |
| CSc1cnc2ccccc2c1Sc1c[nH]c2ccccc2c1=O | 47.4 | 24.8 | 27.2 | 34.4 | 37.6 | 26.6 | 14.8 | 23.8 |  |  |
| O=[N+]([O-])/C(C(Cl)=C(Cl)Cl)=C(/Nc1cccc2cccnc12)n1nnc2ccccc21 |  | > 100 | 25.5 | 32 |  |  | 32.9 |  | 33 |  |
| COC(NC(=O)Nc1ccccc1C)(C(F)(F)F)C(F)(F)F | > 100 | > 100 | > 100 | > 100 | > 100 | > 100 | > 100 | > 100 | > 100 |  |
| O=c1[nH]c(=O)n(C2OC(CO)C(O)C2O)cc1OCCCc1ccccc1 (configuration not stated) | > 100 | > 100 | > 100 | > 100 | > 100 | > 100 | > 100 |  | > 100 | > 100 |
| NC(=O)CN1C=CCC(C(N)=O)=C1 | > 100 | > 100 | > 100 | > 100 | > 100 | > 100 | > 100 | > 100 | > 100 |  |
| COC1=CC(=O)N(C)C(O)C1(C#N)OC1OC(CO)C(O)C(O)C1O (configuration not stated) | > 100 | > 100 | > 100 | > 100 |  | > 100 | > 100 | > 100 | > 100 | > 100 |
| CCOC(=O)C1=C(O)c2ccc(C)cc2C(=O)C1=O | > 100 | > 100 | > 100 | > 100 | > 100 | > 100 | > 100 | > 100 |  |  |
| CC1(C)C=C(/C=N/Nc2ccccc2)C(C#N)=C(O)C1(C#N)C#N | > 100 | > 100 | > 100 | > 100 | > 100 | > 100 | > 100 |  | > 100 | > 100 |
| Clc1ccc(C2=CCN3CC=C(c4ccc(Cl)cc4)C23)cc1 |  | 28.3 | 22.6 | 29.4 |  | 13.5 |  | 23.7 | 22.9 | 25 |
| CC(C)c1cc(C(C)C)c(S(=O)(=O)N=[N+]=[N-])c(C(C)C)c1 |  | > 100 | > 100 | > 100 | > 100 | > 100 | > 100 | > 100 |  |  |
| Oc1ccc(Oc2cc3c(cc2Oc2ccc(O)cc2)-c2nc-3nc3[nH]c(nc4nc(nc5[nH]c(n2)c2cc(Oc6ccc(O)cc6)c(Oc6ccc(O)cc6)cc52)-c2cc(Oc5ccc(O)cc5)c(Oc5ccc(O)cc5)cc2-4)c2cc(Oc4ccc(O)cc4)c(Oc4ccc(O)cc4)cc32)cc1 |  | > 100 | 30.3 | > 100 |  | > 100 | > 100 | > 100 | > 100 | 52.4 |
| CCSC1=CC2(O)N(CCc3ccc(OC)c(OC)c3)C(=O)CC2(C(=O)OC)CC1=O (configuration not stated) | > 100 | > 100 | 56.4 | 31 |  | > 100 | > 100 | 51.7 | 46 | 35.4 |
| CCN(CC)CC1CCCCN1CC(=O)N1CC(C)C(=O)Nc2ccccc21 (configuration not stated) | > 100 | > 100 | > 100 |  |  | > 100 | > 100 | > 100 |  |  |
| COc1cc2nc(-c3cccs3)nc(Nc3cccc(Cl)c3)c2cc1OC | > 100 | > 100 | > 100 | > 100 |  | > 100 | > 100 | > 100 | > 100 | > 100 |
| O=C1NC(N2CCOCC2)=N/C1=C\c1ccc(O)cc1 |  | > 100 | > 100 | > 100 | > 100 |  | > 100 | > 100 | > 100 | > 100 |
| O=C1/C(=C/c2cccc3ccccc23)CCc2ccc([N+](=O)[O-])cc21 | > 100 | > 100 | > 100 | > 100 | 88.8 |  | 77.8 | 39.4 | 22.6 | > 100 |
| CC(=O)C(C)(C)CCC(C)(C)C(C)=O |  | > 100 | > 100 | > 100 | > 100 | > 100 | > 100 | > 100 |  | > 100 |
| O=C1C2C=CC(n3[nH]c(=O)n(Cc4ccccc4)c3=O)CC2C(=O)N1c1ccc(Br)cc1 (configuration not stated) | > 100 | > 100 | > 100 | > 100 | > 100 | > 100 | > 100 | > 100 |  |  |
| C=C1C(C)C2C(Cc3ccccc3)NC(=O)C23OC(=O)/C=C\CC(=O)CCC(C)C/C=C/C3C1O (configuration not stated) | 5.32 | 20.9 |  | 16.7 | 1.42 | 16.3 | 19 | 10.7 |  |  |
| COc1cc2c(c(OC)c1OC)-c1ccc(SC)c(=O)cc1[C@@H](NCc1ccc([N+](=O)[O-])cc1)CC2 | 0.0531 | > 100 |  |  | 0.00781 | 17.5 |  |  |  |  |
| Cc1c2ccncc2c(C)c2c1[nH]c1ccc(OCCN(C)C)cc12 | 2.77 | 0.844 |  | 0.543 | 0.906 | 3.4 | 1.84 | 0.946 |  |  |
| CC1CCC2(OC1)OC1C(O)C3C4CCC5CC(OC6OC(CO)C(OC7OC(CO)C(O)C(OC8OCC(O)C(O)C8O)C7OC7OC(CO)C(O)C(OC8OC(CO)C(O)C(O)C8O)C7O)C(O)C6O)C(O)CC5(C)C4CCC3(C)C1C2C (configuration not stated) | 46.6 | 4.32 | 24.9 | 4.21 |  | 15.9 | 5.57 | 10.2 | 30 | 4.3 |
| Cc1nc(Nc2ccccc2Cl)sc1C(=O)CC(=O)C(N)=O | 66.7 | > 100 | > 100 | > 100 | > 100 |  | > 100 | > 100 | > 100 | > 100 |
| N/C(=N\N=C\c1ncccc1O)NO | > 100 | > 100 |  | > 100 | > 100 | > 31.6 | > 84.1 | > 100 |  |  |
| Oc1ccc(-c2nc3ccccc3s2)cc1 | > 100 | > 100 | > 100 | > 100 | > 100 |  | 86 | > 100 | > 100 | 63.4 |
